Reference: PubChem BioAssay (NCI)
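Where inhibition never reached the appropriate level, the endpoint shown equals the highest concentration tested. Otherwise, values were interpolated linearly from a five-concentration, 48-hour dose response in 96-well plates. TGI: total growth inhibition.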

Experiments:
Test in all cases: DTP human tumour cell line panel, 48 h
[1] = system: A498 renal
[2] = system: KM12 colon
[3] = system: LOX IMVI melanoma
[4] = system: HL-60(TB) leukemia
[5] = system: PC-3 prostate
[6] = system: T-47D breast
[7] = system: HOP-92 NSCLC
[8] = system: SF-539 CNS
[9] = system: A549 NSCLC
[10] = system: SF-268 CNS
[11] = system: UO-31 renal
[12] = system: EKVX NSCLC
[13] = system: HOP-62 NSCLC
[14] = system: NCI/ADR-RES ovarian
[15] = system: HCC-2998 colon
[16] = system: OVCAR-3 ovarian
[17] = system: SK-MEL-28 melanoma
[18] = system: SR leukemia
[19] = system: ACHN renal
[20] = system: 786-0 renal

| SMILES | TGI [1] [µM] | TGI [2] [µM] | TGI [3] [µM] | TGI [4] [µM] | TGI [5] [µM] | TGI [6] [µM] | TGI [7] [µM] | TGI [8] [µM] | TGI [9] [µM] | TGI [10] [µM] | TGI [11] [µM] | TGI [12] [µM] | TGI [13] [µM] | TGI [14] [µM] | TGI [15] [µM] | TGI [16] [µM] | TGI [17] [µM] | TGI [18] [µM] | TGI [19] [µM] | TGI [20] [µM] |
| --- | --- | --- | --- | --- | --- | --- | --- | --- | --- | --- | --- | --- | --- | --- | --- | --- | --- | --- | --- | --- |
| COc1ccc(-n2c(Cn3nnc(-c4cccnc4)n3)nn(C3OC(COC(=O)c4ccccc4)C(OC(=O)c4ccccc4)C3OC(=O)c3ccccc3)c2=S)cc1 (stereo not given) | > 100 | > 100 | > 100 | > 100 | > 100 | > 100 | > 100 | > 100 | > 100 | > 100 | > 100 | > 100 | > 100 | > 100 | > 100 | > 100 | > 100 | > 100 | > 100 | > 100 |
| CCCCOC(=O)NC(Nc1ccc(S(=O)(=O)Nc2ncccn2)cc1)(C(F)(F)F)C(F)(F)F | > 100 | > 100 | > 100 | > 100 | > 100 | > 100 | > 100 | > 100 | > 100 | > 100 | 43.6 | > 100 | > 100 | > 100 | 65.9 | > 100 | > 100 | > 100 | > 100 | > 100 |
| C=C1CC(C)(COc2cc(=O)oc3ccccc23)OC1=O (stereo not given) | 8.74 | 27.3 | 11.5 | 4.83 | 17.5 | 13.8 | 3.54 | 12.6 | 28.2 | 40.5 | 24.8 | 29.4 | 42.1 | 24 | 42.9 | 16.7 | 10.8 | 11.2 | 15.8 | 11.8 |
| C/C(=C\CNc1ncnc2c1ncn2CCC(=O)OC(C)(C)C)CO | > 100 | > 100 | > 100 | > 100 | > 100 | > 100 | > 100 | > 100 | > 100 | > 100 | > 100 | > 100 | > 100 | > 100 | > 100 | > 100 | > 100 | > 100 | > 100 | > 100 |
| COC(=O)c1ccc(C)cc1C1CN=NC12Cc1cc(C)ccc1C2=O (stereo not given) | 55.5 | 44.1 | 42.9 | 16.3 | 58.1 | > 100 | 84.7 | 36.2 | > 100 | > 100 | > 85.1 | > 95.5 | > 100 | 47.5 | > 71.4 | > 80.1 | > 100 | 32.2 | > 100 | > 92.6 |
| CC(C)OC(=O)NNc1cccc(Cl)c1 | > 100 | > 100 | > 100 | > 100 | > 100 | > 100 | > 100 | > 100 | > 100 | > 100 | > 100 | > 100 | > 100 | > 100 | > 100 | > 100 | > 100 | > 100 | > 100 | > 100 |
| O=C(O)c1cccc(OCCOc2cccc(C(=O)O)c2[N+](=O)[O-])c1[N+](=O)[O-] | > 100 | > 100 | > 100 | > 100 | > 100 | > 100 | > 100 | > 100 | > 100 | > 100 | > 100 | > 100 | > 100 | > 100 | > 100 | > 100 | > 100 | > 100 | > 100 | > 100 |
| OCC1OC(n2cnc3c(SCc4ccccc4)ncnc32)C(O)C1O (stereo not given) | > 31.4 | > 100 | > 100 | 8.52 | > 100 | > 100 | > 79.9 | > 100 | > 100 | > 100 | > 100 | > 100 | > 100 | > 100 | > 100 | > 100 | > 100 | > 100 | > 100 | > 100 |
| COc1ccccc1N1C(=O)CSC1c1cc(OC)c(OC)c(OC)c1 (stereo not given) | > 100 | > 100 | > 100 | 97.7 | > 100 | > 38.3 | > 100 | > 100 | > 100 | > 100 | > 100 | > 100 | > 100 | > 100 | > 100 | > 100 | > 100 | > 100 | > 100 | > 100 |
| COc1cc2c(cc1O)Cc1c-2[n+](C)cc2cc(OC)c(OC)cc12 | > 100 | > 100 | > 100 | > 100 | > 100 | > 100 | > 100 | 7.46 | > 100 | > 100 | > 100 | > 100 | > 100 | > 100 | > 100 | > 100 | > 100 | > 22.1 | > 100 | > 44.7 |
| CCCCCCCC(CC(=O)NC(CO)C(=O)NC(CO)CC(C)C)OC(=O)CC(CCCCCCC)OC(=O)CC(CCCCCCC)OC1OC(C)C(O)C(OC2OC(C)C(O)C(O)C2O)C1O (stereo not given) | 35 | 26.3 | 17.7 | 10.5 | 25.3 | 26.6 | 24.8 | 24.7 | 31.7 | 23.2 | 30.5 | 41.8 | 35 | 33.7 | 43.1 | 26.9 | 21.2 | 15.9 | 25.5 | 35 |
| C/C(=N\O)C1CC2C=C(C#N)C1N(Cc1ccccc1)C2 (stereo not given) | > 100 | > 100 | > 100 | > 100 | > 100 | > 100 | > 100 | > 100 | > 100 | > 100 | > 100 | > 100 | > 100 | > 100 | > 100 | > 100 | > 100 | > 100 | > 100 | > 100 |
| COc1ccc2c(c1)-c1nc(=O)n(CCCN(C)C)c3ccc([N+](=O)[O-])c(c13)N2 | 31 | 4.02 | 3.24 | 4.39 | 20.9 | 32.2 | 8.53 | 9.63 | 17 | 17.8 | 4.73 | 6.45 | 2.39 | 10.4 | 17.7 | 19.4 | 4.3 | 2.44 | 15 | 1.94 |
| O=C(CCc1ccc(O)c(O)c1)NCCc1cc(O)c(O)c(O)c1 | > 100 | > 100 | 31.7 | > 100 | > 100 | > 100 | > 100 | > 100 | 54.2 | > 100 | > 100 | 53 | > 100 | 40.9 | > 100 | 34.5 | > 100 | > 100 | > 100 | 32.6 |
| COCC12CCC(OC)C34C5CC6(O)C(OC)C=C(C5C6OC(=O)c5ccccc5)C(C(OC)C13)C4N(C)C2 (stereo not given) | > 100 | > 100 | > 100 | > 100 | > 100 | > 100 | > 100 | > 100 | > 100 | > 100 | > 100 | > 100 | > 100 | > 100 | > 100 | > 100 | > 100 | > 100 | > 100 | > 100 |
| CC(Cc1cccc2c1Nc1ccccc1S2)N(C)CCO (stereo not given) | 93.9 | > 100 | > 100 | > 100 | > 100 | > 100 | > 100 | > 100 | > 100 | > 100 | > 100 | > 100 | > 100 | > 100 | > 100 | > 100 | > 100 | > 100 | > 100 | > 100 |
| Nc1nc(Br)nc2ncn(C3CC(O)C(CO)O3)c12 (stereo not given) | > 100 | > 100 | > 100 | 9.35 | > 100 | > 100 | > 100 | > 100 | > 100 | > 100 | > 100 | > 100 | > 100 | > 63.1 | > 100 | > 100 | > 100 | > 81 | > 100 | > 100 |
